ChEMBL document CHEMBL1134574, “Synthesis and characterization of non-steroidal ligands for the glucocorticoid receptor: selective quinoline derivatives with prednisolone-equivalent functional activity” (J Med Chem, 2001)

Columns and labels:
[1] = target: T1, Glucocorticoid receptor (Homo sapiens, UniProt P04150); experiment: Transcriptional repression of IL-1 stimulated IL-6 expression in native cells compared to Dexamethasone; format: functional, cell-based
T1 sequence (P04150 whole entry): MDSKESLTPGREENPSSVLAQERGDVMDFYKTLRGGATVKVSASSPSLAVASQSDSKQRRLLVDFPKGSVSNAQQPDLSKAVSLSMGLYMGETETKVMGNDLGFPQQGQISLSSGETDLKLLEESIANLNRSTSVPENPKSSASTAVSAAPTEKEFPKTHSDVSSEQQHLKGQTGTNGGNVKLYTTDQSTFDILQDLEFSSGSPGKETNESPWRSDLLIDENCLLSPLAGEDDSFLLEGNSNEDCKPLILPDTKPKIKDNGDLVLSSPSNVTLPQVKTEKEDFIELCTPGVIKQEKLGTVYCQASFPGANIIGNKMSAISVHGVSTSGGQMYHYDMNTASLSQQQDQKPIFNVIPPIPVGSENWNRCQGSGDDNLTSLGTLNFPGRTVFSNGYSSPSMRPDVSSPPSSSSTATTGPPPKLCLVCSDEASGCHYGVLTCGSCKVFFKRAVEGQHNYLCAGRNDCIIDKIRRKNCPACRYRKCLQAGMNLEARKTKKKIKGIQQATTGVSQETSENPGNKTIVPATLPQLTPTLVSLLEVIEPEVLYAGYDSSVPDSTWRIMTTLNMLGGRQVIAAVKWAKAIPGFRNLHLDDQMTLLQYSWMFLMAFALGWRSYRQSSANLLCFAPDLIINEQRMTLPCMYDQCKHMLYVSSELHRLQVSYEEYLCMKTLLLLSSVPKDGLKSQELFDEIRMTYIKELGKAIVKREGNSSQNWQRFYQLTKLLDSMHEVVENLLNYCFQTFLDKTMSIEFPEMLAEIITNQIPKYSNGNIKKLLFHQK

[2] = target: T1, Glucocorticoid receptor; experiment: Binding affinity for glucocorticoid receptor
[3] = target: T2, Progesterone receptor (Homo sapiens, UniProt P06401); experiment: Binding affinity for progesterone receptor
T2 sequence (P06401 whole entry): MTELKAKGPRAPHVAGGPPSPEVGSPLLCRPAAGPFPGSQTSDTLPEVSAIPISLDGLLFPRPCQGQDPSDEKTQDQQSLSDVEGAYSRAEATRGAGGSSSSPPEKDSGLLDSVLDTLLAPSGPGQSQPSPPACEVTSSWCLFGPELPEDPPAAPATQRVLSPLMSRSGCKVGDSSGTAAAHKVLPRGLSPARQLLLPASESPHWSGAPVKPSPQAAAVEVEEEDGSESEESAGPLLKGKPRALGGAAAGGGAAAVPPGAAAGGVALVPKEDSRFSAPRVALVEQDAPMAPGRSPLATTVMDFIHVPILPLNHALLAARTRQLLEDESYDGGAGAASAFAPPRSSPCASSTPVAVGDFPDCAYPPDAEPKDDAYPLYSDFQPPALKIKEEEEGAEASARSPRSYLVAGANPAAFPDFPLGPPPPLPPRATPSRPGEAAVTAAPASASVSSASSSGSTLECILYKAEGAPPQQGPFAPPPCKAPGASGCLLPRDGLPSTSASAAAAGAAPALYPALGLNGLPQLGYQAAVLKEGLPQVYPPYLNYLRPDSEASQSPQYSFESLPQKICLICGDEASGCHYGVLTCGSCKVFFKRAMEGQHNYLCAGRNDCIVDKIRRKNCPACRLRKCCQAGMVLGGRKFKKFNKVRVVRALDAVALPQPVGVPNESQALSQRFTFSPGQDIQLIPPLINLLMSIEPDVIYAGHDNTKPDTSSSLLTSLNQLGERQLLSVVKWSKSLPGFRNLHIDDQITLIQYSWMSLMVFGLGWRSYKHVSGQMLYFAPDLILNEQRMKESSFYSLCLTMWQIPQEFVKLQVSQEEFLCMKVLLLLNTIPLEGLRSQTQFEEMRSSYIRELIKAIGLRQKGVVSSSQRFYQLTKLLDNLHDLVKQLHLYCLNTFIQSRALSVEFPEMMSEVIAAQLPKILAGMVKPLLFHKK

[4] = target: T1, Glucocorticoid receptor; experiment: Glucocorticoid-induced aromatase activity in human skin fibroblasts; format: functional
[5] = target: Estrogen receptor (Homo sapiens, UniProt Q92731+P03372); experiment: Binding affinity for estrogen receptor; format: protein assay
[6] = target: T1, Glucocorticoid receptor; experiment: Repression activity of GR ligand with interleukin-6 receptor in native cell assay using Dexamethasone was determined as maximal potency; format: functional
[7] = target: T1, Glucocorticoid receptor; experiment: Displacement of [3H]- Dexamethasone from glucocorticoid receptor
[8] = target: T3, Mineralocorticoid receptor (Homo sapiens, UniProt P08235); experiment: Binding affinity for mineralocorticoid receptor
T3 sequence (P08235 whole entry): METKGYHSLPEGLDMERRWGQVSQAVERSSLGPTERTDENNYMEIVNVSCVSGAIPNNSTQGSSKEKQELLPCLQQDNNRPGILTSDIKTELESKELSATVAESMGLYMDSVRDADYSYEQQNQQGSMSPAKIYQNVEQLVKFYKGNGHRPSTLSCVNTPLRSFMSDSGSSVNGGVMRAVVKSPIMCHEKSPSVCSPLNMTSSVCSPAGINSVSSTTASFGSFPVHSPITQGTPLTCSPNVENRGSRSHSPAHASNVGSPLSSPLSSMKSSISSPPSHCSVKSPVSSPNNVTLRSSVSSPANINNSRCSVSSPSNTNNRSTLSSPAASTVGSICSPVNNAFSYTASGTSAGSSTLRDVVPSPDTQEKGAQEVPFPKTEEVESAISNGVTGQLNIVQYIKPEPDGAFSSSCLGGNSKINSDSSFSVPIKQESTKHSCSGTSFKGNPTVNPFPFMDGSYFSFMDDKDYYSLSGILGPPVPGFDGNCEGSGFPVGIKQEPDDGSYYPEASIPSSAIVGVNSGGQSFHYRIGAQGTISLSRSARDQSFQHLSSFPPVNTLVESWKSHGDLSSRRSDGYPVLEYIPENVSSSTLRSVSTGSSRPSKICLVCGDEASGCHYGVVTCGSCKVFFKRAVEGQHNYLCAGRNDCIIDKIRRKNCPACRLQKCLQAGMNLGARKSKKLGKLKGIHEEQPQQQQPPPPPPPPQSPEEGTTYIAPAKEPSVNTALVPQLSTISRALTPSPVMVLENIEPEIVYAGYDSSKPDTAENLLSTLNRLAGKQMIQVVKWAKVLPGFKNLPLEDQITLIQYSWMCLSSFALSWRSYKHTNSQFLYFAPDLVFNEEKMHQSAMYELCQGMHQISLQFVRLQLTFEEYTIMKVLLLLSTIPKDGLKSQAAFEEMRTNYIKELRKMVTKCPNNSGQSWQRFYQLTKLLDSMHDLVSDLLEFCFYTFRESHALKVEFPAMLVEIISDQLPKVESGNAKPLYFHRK

[9] = target: T1, Glucocorticoid receptor; experiment: Transcriptional repression activity in HEP G2 cells expressing glucocorticoid receptor compared to Dexamethasone; format: functional, cell-based, HepG2
[10] = target: T1, Glucocorticoid receptor; experiment: Transcriptional activation in CV-1 cells expressing glucocorticoid receptor; format: functional, cell-based
[11] = target: T4, Androgen receptor (Homo sapiens, UniProt P10275); experiment: Binding affinity for androgen receptor
T4 sequence (P10275 whole entry): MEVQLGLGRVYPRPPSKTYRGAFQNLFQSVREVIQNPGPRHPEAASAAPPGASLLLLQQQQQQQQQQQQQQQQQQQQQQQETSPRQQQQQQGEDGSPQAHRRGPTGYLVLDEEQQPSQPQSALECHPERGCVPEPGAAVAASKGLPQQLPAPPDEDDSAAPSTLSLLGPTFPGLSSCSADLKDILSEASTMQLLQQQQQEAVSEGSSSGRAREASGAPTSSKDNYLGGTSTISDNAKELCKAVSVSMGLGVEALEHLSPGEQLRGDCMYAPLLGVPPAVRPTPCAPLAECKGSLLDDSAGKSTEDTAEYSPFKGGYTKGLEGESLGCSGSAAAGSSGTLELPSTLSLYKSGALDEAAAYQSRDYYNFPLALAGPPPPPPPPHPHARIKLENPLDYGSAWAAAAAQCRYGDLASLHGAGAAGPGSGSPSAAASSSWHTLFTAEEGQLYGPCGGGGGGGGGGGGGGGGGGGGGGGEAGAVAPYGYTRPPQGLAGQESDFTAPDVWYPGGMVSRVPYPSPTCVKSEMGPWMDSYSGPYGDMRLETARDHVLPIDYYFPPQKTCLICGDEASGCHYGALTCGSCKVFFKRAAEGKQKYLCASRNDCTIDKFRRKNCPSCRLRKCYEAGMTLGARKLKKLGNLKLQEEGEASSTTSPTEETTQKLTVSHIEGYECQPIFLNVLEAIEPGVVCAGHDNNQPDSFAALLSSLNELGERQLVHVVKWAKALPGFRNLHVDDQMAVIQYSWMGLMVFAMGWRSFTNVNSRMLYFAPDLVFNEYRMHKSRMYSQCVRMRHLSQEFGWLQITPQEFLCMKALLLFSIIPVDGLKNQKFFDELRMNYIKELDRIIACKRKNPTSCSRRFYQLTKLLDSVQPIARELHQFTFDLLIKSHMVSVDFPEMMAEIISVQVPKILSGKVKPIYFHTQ

[12] = species: Rattus norvegicus; experiment: Anti-asthmatic effect as eosinophil influx in rat lung model; format: functional

Row | Structure (SMILES) | Ki [2] [nM] | Ki [3] [nM] | IC50 [4] [nM] | Ki [5] [nM] | IC50 [6] [nM] | Ki [8] [nM] | IC50 [9] [nM] | IC50 [10] [nM] | Ki [11] [nM] | also measured
1 | COc1cccc2c1-c1ccc3c(c1C(c1ccccc1)O2)C(C)=CC(C)(C)N3 (single isomer, unassigned; (-)) | 2.1 | > 5000 |  |  |  |  |  |  |  | IC50 [1]: 30 nM
2 | COc1cccc2c1-c1ccc3c(c1C(c1cccc(OC(=O)N(C)C)c1)O2)C(C)=CC(C)(C)N3 (stereo unspecified) |  | > 5000 | 216 | > 1000 | 26 | 3910 | 6 | 12 | 3070 | Ki [7]: 2.4 nM
3 | COc1cccc2c1-c1ccc3c(c1C(c1cc(C)cc(C)c1)O2)C(C)=CC(C)(C)N3 (stereo unspecified) |  |  | 146 |  | 9.2 |  | 18 | 24 |  | 
4 | CC1=CC(C)(C)Nc2ccc3c(c21)C(c1ccccc1)Oc1ccc(Cl)cc1-3 (stereo unspecified) | 9.3 | 53 |  | > 1000 |  | 1100 |  |  | 1400 | 
5 | COc1cccc2c1-c1ccc3c(c1C(c1ccccc1)O2)C(C)=CC(C)(C)N3 (stereo in doubt; 10) | 4.7 | > 5000 | 164 | > 1000 | 51 | 1680 | 123 | 300 | 2660 | 
6 | COCOc1cccc(C2Oc3cccc(OC)c3-c3ccc4c(c32)C(C)=CC(C)(C)N4)c1 (stereo unspecified) |  |  | 131 |  | 49 |  | 23 | 28 |  | 
7 | COc1cccc2c1-c1ccc3c(c1C(c1cccc(C(F)(F)F)c1)O2)C(C)=CC(C)(C)N3 (stereo unspecified) | 11 |  | 105 | > 1000 | 32 | 493 | 57 | 44 | 3360 | 
8 | COc1cccc2c1-c1ccc3c(c1C(c1cc(C)cc(Br)c1)O2)C(C)=CC(C)(C)N3 (stereo unspecified) |  |  | 314 |  | 12 |  | 18 | 29 |  | 
9 | COc1ccc2c(c1)-c1ccc3c(c1C(c1ccccc1)O2)C(C)=CC(C)(C)N3 (stereo unspecified) | 18 | 390 |  |  |  |  |  |  |  | 
10 | C[C@]12C=CC(=O)C=C1CC[C@@H]1[C@@H]2[C@@H](O)C[C@@]2(C)[C@H]1CC[C@]2(O)C(=O)CO [PREDNISOLONE] |  |  |  | > 1000 |  | 37 |  |  |  | ED50 [12]: 1.2 mg/kg
11 | COc1cccc2c1-c1ccc3c(c1C(c1cc(F)cc(F)c1)O2)C(C)=CC(C)(C)N3 (stereo unspecified) |  |  | 56 |  | 11 |  | 9 | 10 |  | 
12 | COc1cccc2c1-c1ccc3c(c1C(c1ccccc1)O2)C(C)=CC(C)(C)N3 (stereo in doubt; (+)19) | 240 | > 5000 |  |  |  | > 5000 |  |  | > 5000 | 
13 | COc1cccc2c1-c1ccc3c(c1C(c1cc(Cl)cc(Cl)c1)O2)C(C)=CC(C)(C)N3 (single isomer, unassigned; (+)) |  | > 5000 |  |  |  | > 5000 |  |  | > 5000 | 
14 | COc1cccc2c1-c1ccc3c(c1C(c1cc(Cl)cc(Cl)c1)O2)C(C)=CC(C)(C)N3 (stereo in doubt; 17) |  | > 5000 |  |  |  |  |  |  |  | 
15 | COc1ccc2c(c1)OC(c1ccccc1)c1c-2ccc2c1C(C)=CC(C)(C)N2 (stereo unspecified) | 1800 | > 5000 |  |  |  |  |  |  |  | 
16 | COc1cccc2c1-c1ccc3c(c1C(c1cc(Cl)cc(Cl)c1)O2)C(C)=CC(C)(C)N3 (stereo in doubt; (-)22) |  | 1560 |  |  |  |  |  |  |  | 
